Columns and labels:
[1] = molecular target: Phosphodiesterase 3 (Homo sapiens, UniProt Q14432+Q13370); experiment: Cardiotonic effect by inhibition of cAMP phosphodiesterase (PDE III); format: protein assay, Canis lupus familiaris
[2] = system: Canis familiaris; experiment: Cardiotonic activity in increasing contractility in phenobarbital-anesthetized dogs after intravenous administration; format: functional; details: Canis lupus familiaris
[3] = system: Canis familiaris; experiment: Cardiotonic activity by decreasing mean arterial blood pressure(MAP) in phenobarbital-anesthetized dogs after intravenous administration; format: functional, Canis lupus familiaris, Artery
[4] = system: Canis familiaris; experiment: Cardiotonic activity by increasing heart rate (HR) in phenobarbital-anesthetized dogs after intravenous administration; format: functional, Canis lupus familiaris

IC50 [1] [µM]	Compound	ED50 [2] [mg/kg]	MAP [3] [mmHg]	Heart rate [4] [beats min-1]
31	Cc1nc(O)c(N)cc1-c1ccncc1	0.055	10	9
	Cc1[nH]c(=O)c(C#N)cc1-c1ccncc1 [MILRINONE]	0.037	10	14
12	CCc1nc(O)c(C#N)cc1-c1ccncc1	0.12	12	19
	Nc1cc(-c2ccncc2)c[nH]c1=O [INAMRINONE]	1.89	16	13
38	CCCc1nc(O)c(C#N)cc1-c1ccncc1	0.748	20	25

— ChEMBL document CHEMBL1123168 (J Med Chem, 1986)
